Measured values published in PMC9403976, “Elucidating the path to Plasmodium prolyl-tRNA synthetase inhibitors that overcome halofuginone resistance” (Nature Communications, 2022).
Where “and” joins values, the source holds several entries; their conditions need not be identical. Identical values can stand only once. Like-named read-outs stand apart in the source and are kept apart here.

Assays:
P. falciparum Dd2-2D4 = test: P. falciparum asexual blood stage (ABS) growth assay, SYBR Green, 72 h, wild-type parasites; type: cell-based, Plasmodium falciparum; conditions: Plasmodium falciparum, DD2; SI Fig 16b; values on -log scale; read-out: ABS - Dd2-2D4 (converted)
PfcProRS = target: T1, PfcProRS (Plasmodium falciparum, UniProt Q8I5R7); type: binding; conditions: replicates 1-3
T1 construct: made in house; host or cells: E. coli SoluBL-21

HsProRS = HsProRS (Homo sapiens, UniProt P07814); test: TR-FRET ligand displacement assay with tracer MAT379 (CoraFluor-1-Halo and anti-His6 antibody formats); type: binding; parameters: made in house; host or cells: E. coli SoluBL-21; conditions: for HsProRS % signal at 10 μM: no added proline/ATP (-)
[1] = read-out: HsProRS IC50 + 100 μM proline, + 100 μM proline

T1 sequence (Q8I5R7 249-746): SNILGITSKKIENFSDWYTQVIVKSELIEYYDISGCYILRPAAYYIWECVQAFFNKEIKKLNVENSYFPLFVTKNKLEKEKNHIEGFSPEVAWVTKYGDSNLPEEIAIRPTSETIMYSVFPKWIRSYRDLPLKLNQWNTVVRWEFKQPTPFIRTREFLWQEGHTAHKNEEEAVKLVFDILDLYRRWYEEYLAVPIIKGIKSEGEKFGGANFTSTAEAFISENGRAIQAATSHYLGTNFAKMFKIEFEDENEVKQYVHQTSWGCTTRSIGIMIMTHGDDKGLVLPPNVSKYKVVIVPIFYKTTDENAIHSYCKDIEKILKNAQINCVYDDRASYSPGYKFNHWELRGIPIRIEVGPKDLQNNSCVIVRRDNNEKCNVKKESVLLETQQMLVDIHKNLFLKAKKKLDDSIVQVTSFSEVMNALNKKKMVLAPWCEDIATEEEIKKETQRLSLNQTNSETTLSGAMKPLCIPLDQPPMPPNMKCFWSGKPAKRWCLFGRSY
Sequence of HsProRS (P07814 996-1512): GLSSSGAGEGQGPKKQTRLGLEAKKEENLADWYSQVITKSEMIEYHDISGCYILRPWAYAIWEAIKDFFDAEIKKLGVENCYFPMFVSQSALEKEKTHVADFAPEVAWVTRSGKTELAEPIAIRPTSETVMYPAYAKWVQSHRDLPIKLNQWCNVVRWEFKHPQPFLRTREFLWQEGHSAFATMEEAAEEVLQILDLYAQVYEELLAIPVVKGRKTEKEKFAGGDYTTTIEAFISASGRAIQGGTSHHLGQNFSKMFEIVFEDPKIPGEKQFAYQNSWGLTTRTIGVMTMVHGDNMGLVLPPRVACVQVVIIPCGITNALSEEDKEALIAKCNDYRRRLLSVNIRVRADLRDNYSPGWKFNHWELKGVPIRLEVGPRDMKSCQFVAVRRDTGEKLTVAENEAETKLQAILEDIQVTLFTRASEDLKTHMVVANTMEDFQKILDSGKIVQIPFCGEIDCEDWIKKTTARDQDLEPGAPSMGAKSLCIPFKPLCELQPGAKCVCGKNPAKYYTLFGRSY

SMILES	EC50 (P. falciparum Dd2-2D4)	Normalized response, dose-response replicates (SI Fig 14) (PfcProRS; Log[inhibitor] (M) -5.000)	Normalized response, dose-response replicates (SI Fig 14) (PfcProRS; Log[inhibitor] (M) -5.301)	Normalized response, dose-response replicates (SI Fig 14) (PfcProRS; Log[inhibitor] (M) -5.601)	Normalized response, dose-response replicates (SI Fig 14) (PfcProRS; Log[inhibitor] (M) -5.904)	Normalized response, dose-response replicates (SI Fig 14) (PfcProRS; Log[inhibitor] (M) -6.208)	Normalized response, dose-response replicates (SI Fig 14) (PfcProRS; Log[inhibitor] (M) -6.509)	Normalized response, dose-response replicates (SI Fig 14) (PfcProRS; Log[inhibitor] (M) -6.796)	Normalized response, dose-response replicates (SI Fig 14) (PfcProRS; Log[inhibitor] (M) -7.108)	Normalized response, dose-response replicates (SI Fig 14) (PfcProRS; Log[inhibitor] (M) -7.409)	Normalized response, dose-response replicates (SI Fig 14) (PfcProRS; Log[inhibitor] (M) -7.710)	Normalized response, dose-response replicates (SI Fig 14) (PfcProRS; Log[inhibitor] (M) -8.000)	Normalized response, dose-response replicates (SI Fig 14) (PfcProRS; Log[inhibitor] (M) -8.301)	Normalized response, dose-response replicates (SI Fig 14) (PfcProRS; Log[inhibitor] (M) -8.602)	Normalized response, dose-response replicates (SI Fig 14) (PfcProRS; Log[inhibitor] (M) -9.000)	Normalized response, dose-response replicates (SI Fig 14) (PfcProRS; Log[inhibitor] (M) -9.301)	IC50 (HsProRS)	HsProRS % signal at 10 μM, + 100 μM proline (HsProRS; + 100 μM proline)	HsProRS % signal at 10 μM (HsProRS)	IC50 (HsProRS; [1])	also measured
Nc1nccnc1C(=O)NC1Cc2ccccc2C1 [compound 45]	13.6 µM	9.00E-01 and 8.01E-01 and 8.09E-01	8.40E-01 and 9.11E-01 and 9.42E-01	1.06E+00 and 1.02E+00 and 9.65E-01	1.09E+00 (2×) and 1.04E+00	9.29E-01 and 9.65E-01 and 9.12E-01	8.69E-01 and 9.97E-01 and 9.91E-01	1.07E+00 and 1.10E+00 and 9.29E-01	1.07E+00 and 1.01E+00 and 9.62E-01	8.73E-01 and 9.86E-01 and 1.07E+00	9.54E-01 and 1.09E+00 and 1.02E+00	9.85E-01 and 1.09E+00 and 1.00E+00	1.09E+00 and 9.49E-01 and 9.81E-01	1.13E+00 and 9.21E-01 and 9.56E-01	1.01E+00 and 9.94E-01 and 8.80E-01	9.92E-01 (2×) and 9.81E-01	> 10 µM	83.7%	90.2%	> 10 µM	
CNc1nccnc1C(=O)NC1Cc2ccccc2C1 [compound 46]	8.11 µM	8.16E-01 and 6.16E-01 and 6.52E-01	8.98E-01 and 7.41E-01 and 8.21E-01	9.35E-01 and 8.99E-01 and 9.60E-01	1.14E+00 and 9.86E-01 and 9.79E-01	1.04E+00 and 1.02E+00 and 8.92E-01	1.02E+00 (2×) and 9.27E-01	1.13E+00 and 1.15E+00 and 1.04E+00	9.45E-01 and 1.04E+00 and 8.83E-01	1.08E+00 and 9.92E-01 and 1.03E+00	9.83E-01 and 1.09E+00 and 9.75E-01	9.64E-01 and 1.04E+00 and 9.43E-01	1.03E+00 (2×) and 1.01E+00	1.06E+00 and 9.77E-01 and 1.03E+00	9.75E-01 and 9.25E-01 and 9.98E-01	9.09E-01 and 1.02E+00 and 8.23E-01	> 10 µM	91.7%	97.1%	> 10 µM	
O=c1[nH]c2nccnc2c(=O)n1C1Cc2ccccc2C1 [compound 47]	11.1 µM	3.53E-01 and 3.73E-01 and 3.10E-01	5.89E-01 and 4.94E-01 and 3.58E-01	7.17E-01 and 7.23E-01 and 6.31E-01	1.01E+00 and 8.61E-01 and 7.86E-01	1.02E+00 and 1.03E+00 and 9.13E-01	9.57E-01 and 9.63E-01 and 9.85E-01	1.08E+00 and 9.96E-01 and 1.07E+00	9.59E-01 and 1.12E+00 and 1.15E+00	1.11E+00 and 1.34E+00 and 1.10E+00	1.07E+00 (2×) and 1.12E+00	1.02E+00 and 1.00E+00 and 1.01E+00	1.13E+00 and 1.06E+00 and 1.10E+00	1.07E+00 and 9.89E-01 and 9.49E-01	9.68E-01 and 9.48E-01 and 1.08E+00	9.08E-01 and 1.04E+00 and 1.01E+00	> 10 µM		79.5%		Kd (HsProRS; HsProRS (KD [nM]) + 100 μM proline mean, + 100 μM proline): 2650 nM
